Reference: patent publication US6953832B2, “Dental materials based on polyfunctional amides” (Ivoclar Vivadent AG, priority 2001, dated 2005)

Experiment: Hydrolysis stability of monomer in water/ethanol/phosphoric acid (1H-NMR)
Assay type: physicochemical
Excerpt: A major advantage of the amides according to the invention is to be seen in their hydrolysis stability. Aqueous solutions of the amides are thus also storage-stable in the presence of acidic compounds. As a linking of the monomer components via covalent C—C single bonds takes place on polymerization, this also applies to the corresponding polymers.

Which Hydrolysis stability (20 wt.-% solution in 1:1:1 water, ethanol and 10% phosphoric acid, 37° C., 4 weeks, 1H-NMR) does the source give for Glycerine dimethacrylate here?
The Hydrolysis stability was “−”.

What about the “Hydrolysis stability in the presence of acid (in words)” value (aqueous solution, in the presence of phosphoric acid / acidic compounds) of the same substance?
Its value is “completely split to form glycerine and methacrylic acid”.
